The text below walks through data of patent US7297700B2, “Bicycloheteroaryl compounds as P2X7 modulators and uses thereof” (Renovis, Inc., priority 2005, dated 2007).

The subject of the first assay is IL-1β release from THP-1 cells. Briefly: IL-1β Release Assay (Alternate Method), THP-1 cells. The following applies: Homo sapiens, THP-1, read-out: IL-1β % inhibition. Type of assay: cell-based, human. The essentials:
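THP-1 cells differentiated 16 h with 100 ng/mL LPS plus 100 ng/mL IFN-γ, reprimed 2 h with 100 ng/mL LPS, pretreated 30 min with compound, then challenged 45 min with 250 uM BzATP (final). Supernatant IL-1β quantified by ELISA; percent inhibition from background-adjusted levels versus untreated cells.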
The term inhibition denotes the change of the read-out against control, counted positive when it falls. Regarding `O=C(Nc1ncnc2c1CCN(S(=O)(=O)c1ccccc1)C2)C12CC3CC(CC(C3)C1)C2` [Compound 481], the inhibition at 0.3 µM was 25 to 50%.

The same assay, now with this note: at 0.3 μM; THP-1 cells, BzATP-stimulated.
On to `COc1ccc(C(=O)N2CCc3c(ncnc3NC(=O)C34CC5CC(CC(C5)C3)C4)C2)cc1OC` [Compound 476], for which the IL-1β % inhibition result is “++ (compound exhibited 25-50% inhibition at 0.3 μM)”. As for `O=C(c1cc(Cl)cc(Cl)c1)N1CCc2c(ncnc2NC(=O)C23CC4CC(CC(C4)C2)C3)C1` [Compound 479], the IL-1β % inhibition entry was “+ (compound exhibited 0-25% inhibition at 0.3 μM)”. Take `CS(=O)(=O)N1CCc2c(ncnc2NC(=O)C23CC4CC(CC(C4)C2)C3)C1` [Compound 480]: the IL-1β % inhibition entry was “+ (compound exhibited 0-25% inhibition at 0.3 μM)”. Regarding `Cc1ccc(S(=O)(=O)N2CCc3c(ncnc3NC(=O)C34CC5CC(CC(C5)C3)C4)C2)cc1` [Compound 482], the IL-1β % inhibition result is “++ (compound exhibited 25-50% inhibition at 0.3 μM)”. Same read-out and setting: next, `O=C(Nc1ncnc2c1CCN(S(=O)(=O)c1ccc3ccccc3c1)C2)C12CC3CC(CC(C3)C1)C2` [Compound 483]: “+++ (compound exhibited 50-75% inhibition at 0.3 μM)”.

Regarding `CCCS(=O)(=O)N1CCc2c(ncnc2NC(=O)C23CC4CC(CC(C4)C2)C3)C1` [Compound 485], the IL-1β % inhibition result was “+ (compound exhibited 0-25% inhibition at 0.3 μM)”. For the molecule `CCS(=O)(=O)N1CCc2c(ncnc2NC(=O)C23CC4CC(CC(C4)C2)C3)C1` [Compound 486], the IL-1β % inhibition entry is reported as “+ (compound exhibited 0-25% inhibition at 0.3 μM)”.

Turning to `COc1ccc(S(=O)(=O)N2CCc3c(ncnc3NC(=O)C34CC5CC(CC(C5)C3)C4)C2)cc1` [Compound 487], the IL-1β % inhibition result was “++ (compound exhibited 25-50% inhibition at 0.3 μM)”. As to `O=C(Nc1ncnc2c1CCN(S(=O)(=O)c1ccc(Cl)cc1)C2)C12CC3CC(CC(C3)C1)C2` [Compound 488], the IL-1β % inhibition result is on record as “+ (compound exhibited 0-25% inhibition at 0.3 μM)”. As for `COc1ccc(S(=O)(=O)N2CCc3c(ncnc3NC(=O)C34CC5CC(CC(C5)C3)C4)C2)cc1OC` [Compound 489], the IL-1β % inhibition entry is “+++ (compound exhibited 50-75% inhibition at 0.3 μM)”. In the case of `O=C(Nc1ncnc2c1CCN(S(=O)(=O)c1ccc(F)cc1)C2)C12CC3CC(CC(C3)C1)C2` [Compound 490], the IL-1β % inhibition result is on record as “+++ (compound exhibited 50-75% inhibition at 0.3 μM)”. As for `O=C(Nc1ncnc2c1CCN(S(=O)(=O)Cc1ccccc1)C2)C12CC3CC(CC(C3)C1)C2` [Compound 491], the IL-1β % inhibition result is “+ (compound exhibited 0-25% inhibition at 0.3 μM)”. Same read-out and setting: with `O=C(Nc1ncnc2c1CCN(S(=O)(=O)c1cccc(C(F)(F)F)c1)C2)C12CC3CC(CC(C3)C1)C2` [Compound 492] the entry was “+++ (compound exhibited 50-75% inhibition at 0.3 μM)”. On the same count and under the same terms, next, `O=C(Nc1ncnc2c1CCN(S(=O)(=O)c1ccc(OC(F)(F)F)cc1)C2)C12CC3CC(CC(C3)C1)C2` [Compound 493]: “++ (compound exhibited 25-50% inhibition at 0.3 μM)”; `CN1CCOc2cc(S(=O)(=O)N3CCc4c(ncnc4NC(=O)C45CC6CC(CC(C6)C4)C5)C3)ccc21` [Compound 494]: “+++ (compound exhibited 50-75% inhibition at 0.3 μM)”. For `Cc1nn(C)c(Cl)c1S(=O)(=O)N1CCc2c(ncnc2NC(=O)C23CC4CC(CC(C4)C2)C3)C1` [Compound 495], the IL-1β % inhibition result is “++ (compound exhibited 25-50% inhibition at 0.3 μM)”. The same measure, in the same setting: next, `O=C(Nc1ncnc2c1CCN(S(=O)(=O)c1cccc(OC(F)(F)F)c1)C2)C12CC3CC(CC(C3)C1)C2` [Compound 497]: “+ (compound exhibited 0-25% inhibition at 0.3 μM)”; `COc1cccc(S(=O)(=O)N2CCc3c(ncnc3NC(=O)C34CC5CC(CC(C5)C3)C4)C2)c1` [Compound 498]: “+ (compound exhibited 0-25% inhibition at 0.3 μM)”; `Cc1nc(S(=O)(=O)N2CCc3c(ncnc3NC(=O)C34CC5CC(CC(C5)C3)C4)C2)cn1C` [Compound 499]: “+ (compound exhibited 0-25% inhibition at 0.3 μM)”. In the case of `N#Cc1ccc(S(=O)(=O)N2CCc3c(ncnc3NC(=O)C34CC5CC(CC(C5)C3)C4)C2)c(Cl)c1` [Compound 500], the IL-1β % inhibition entry is listed as “+++ (compound exhibited 50-75% inhibition at 0.3 μM)”. On to `O=C(Nc1ncnc2c1CCN(S(=O)(=O)c1ccccc1F)C2)C12CC3CC(CC(C3)C1)C2` [Compound 501], for which the IL-1β % inhibition entry is “++ (compound exhibited 25-50% inhibition at 0.3 μM)”.

Turning to `Cc1noc(C)c1S(=O)(=O)N1CCc2c(ncnc2NC(=O)C23CC4CC(CC(C4)C2)C3)C1` [Compound 503], the IL-1β % inhibition result is given as “+ (compound exhibited 0-25% inhibition at 0.3 μM)”. Same read-out and setting: with `O=C(Nc1ncnc2c1CCN(S(=O)(=O)c1ccc3oc(=O)ccc3c1)C2)C12CC3CC(CC(C3)C1)C2` [Compound 505] the entry was “+ (compound exhibited 0-25% inhibition at 0.3 μM)”; with `O=C(Nc1ncnc2c1CCN(S(=O)(=O)c1ccc(Oc3ccccn3)cc1)C2)C12CC3CC(CC(C3)C1)C2` [Compound 506], “++++ (compound exhibited 75% or greater inhibition at 0.3 μM)”; with `COc1ccc(Oc2ccc(S(=O)(=O)N3CCc4c(ncnc4NC(=O)C45CC6CC(CC(C6)C4)C5)C3)cc2)cc1` [Compound 509], “+++ (compound exhibited 50-75% inhibition at 0.3 μM)”. The same measure, in the same setting: next, `O=C(Nc1ncnc2c1CCN(S(=O)(=O)c1ccc(Oc3ccc(C(F)(F)F)cc3)cc1)C2)C12CC3CC(CC(C3)C1)C2` [Compound 510]: “++++ (compound exhibited 75% or greater inhibition at 0.3 μM)”. Consider `COc1ccc(-c2ccc(S(=O)(=O)N3CCc4c(ncnc4NC(=O)C45CC6CC(CC(C6)C4)C5)C3)cc2)cc1` [Compound 512], for which the IL-1β % inhibition entry is recorded as “++ (compound exhibited 25-50% inhibition at 0.3 μM)”. Take `O=C(Nc1ncnc2c1CCN(S(=O)(=O)c1cc(C(F)(F)F)ccc1Cl)C2)C12CC3CC(CC(C3)C1)C2` [Compound 514]: the IL-1β % inhibition result is “+ (compound exhibited 0-25% inhibition at 0.3 μM)”. For the molecule `O=C(Nc1ncnc2c1CCN(S(=O)(=O)Cc1cc(C(F)(F)F)cc(C(F)(F)F)c1)C2)C12CC3CC(CC(C3)C1)C2` [Compound 515], the IL-1β % inhibition result was “+++ (compound exhibited 50-75% inhibition at 0.3 μM)”.

As for `O=C(Nc1ncnc2c1CCN(S(=O)(=O)Cc1ccc(C(F)(F)F)cc1)C2)C12CC3CC(CC(C3)C1)C2` [Compound 516], the IL-1β % inhibition result was “++ (compound exhibited 25-50% inhibition at 0.3 μM)”.

Regarding `O=C(Nc1ncnc2c1CCN(S(=O)(=O)Cc1ccc(F)cc1)C2)C12CC3CC(CC(C3)C1)C2` [Compound 517], the IL-1β % inhibition result is recorded as “++ (compound exhibited 25-50% inhibition at 0.3 μM)”. For `O=C(Nc1ncnc2c1CCN(S(=O)(=O)Cc1ccc(Cl)c(Cl)c1)C2)C12CC3CC(CC(C3)C1)C2` [Compound 518], the IL-1β % inhibition entry was “++++ (compound exhibited 75% or greater inhibition at 0.3 μM)”. As to `O=C(Nc1ncnc2c1CCN(S(=O)(=O)Cc1cc(Cl)cc(Cl)c1)C2)C12CC3CC(CC(C3)C1)C2` [Compound 519], the IL-1β % inhibition entry is “+++ (compound exhibited 50-75% inhibition at 0.3 μM)”. With `O=C(Nc1ncnc2c1CCN(S(=O)(=O)Cc1cccc(C(F)(F)F)c1)C2)C12CC3CC(CC(C3)C1)C2` [Compound 520], the IL-1β % inhibition entry is recorded as “++ (compound exhibited 25-50% inhibition at 0.3 μM)”. In the case of `O=C(Nc1ncnc2c1CCN(S(=O)(=O)Cc1ccc(Cl)cc1)C2)C12CC3CC(CC(C3)C1)C2` [Compound 522], the IL-1β % inhibition entry was “+++ (compound exhibited 50-75% inhibition at 0.3 μM)”. On to `O=C(Nc1ncnc2c1CCN(S(=O)(=O)c1ccc(OC(F)F)cc1)C2)C12CC3CC(CC(C3)C1)C2` [Compound 523], for which the IL-1β % inhibition result is “+ (compound exhibited 0-25% inhibition at 0.3 μM)”.

Take `O=C(Nc1ncnc2c1CCN(S(=O)(=O)c1ccc(Oc3ccccc3)cc1)C2)C12CC3CC(CC(C3)C1)C2` [Compound 524]: the IL-1β % inhibition result is “++++ (compound exhibited 75% or greater inhibition at 0.3 μM)”. Take `O=C(Nc1ncnc2c1CCN(S(=O)(=O)c1ccccc1Cl)C2)C12CC3CC(CC(C3)C1)C2` [Compound 525]: the IL-1β % inhibition entry is recorded as “+ (compound exhibited 0-25% inhibition at 0.3 μM)”. On the same count and under the same terms, next, `O=C(Nc1ncnc2c1CCN(S(=O)(=O)c1ccc(F)c(Cl)c1)C2)C12CC3CC(CC(C3)C1)C2` [Compound 526]: “++ (compound exhibited 25-50% inhibition at 0.3 μM)”; `O=C(Nc1ncnc2c1CCN(S(=O)(=O)c1ccccc1-c1ccccc1)C2)C12CC3CC(CC(C3)C1)C2` [Compound 527]: “+++ (compound exhibited 50-75% inhibition at 0.3 μM)”. Consider `O=C(Nc1ncnc2c1CCN(S(=O)(=O)c1ccccc1C(F)(F)F)C2)C12CC3CC(CC(C3)C1)C2` [Compound 528], for which the IL-1β % inhibition entry is on record as “++ (compound exhibited 25-50% inhibition at 0.3 μM)”.

On to `Cc1nn(C)c(C)c1S(=O)(=O)N1CCc2c(ncnc2NC(=O)C23CC4CC(CC(C4)C2)C3)C1` [Compound 531], for which the IL-1β % inhibition result is “++ (compound exhibited 25-50% inhibition at 0.3 μM)”.

As for `O=C(Nc1ncnc2c1CCN(S(=O)(=O)c1ccccc1OC(F)(F)F)C2)C12CC3CC(CC(C3)C1)C2` [Compound 532], the IL-1β % inhibition entry is “+ (compound exhibited 0-25% inhibition at 0.3 μM)”. Same read-out and setting: next, `Cc1ccccc1S(=O)(=O)N1CCc2c(ncnc2NC(=O)C23CC4CC(CC(C4)C2)C3)C1` [Compound 533]: “+++ (compound exhibited 50-75% inhibition at 0.3 μM)”; `O=C(Nc1ncnc2c1CCN(S(=O)(=O)c1ccc3c(c1)OCCO3)C2)C12CC3CC(CC(C3)C1)C2` [Compound 534]: “+++ (compound exhibited 50-75% inhibition at 0.3 μM)”; `O=C(Nc1ncnc2c1CCN(S(=O)(=O)c1ccc(C(F)(F)F)cc1)C2)C12CC3CC(CC(C3)C1)C2` [Compound 535]: “++ (compound exhibited 25-50% inhibition at 0.3 μM)”. Still for that read-out and setting: with `O=C(Nc1ncnc2c1CCN(S(=O)(=O)c1ccc(Cl)cc1F)C2)C12CC3CC(CC(C3)C1)C2` [Compound 536] the entry was “++ (compound exhibited 25-50% inhibition at 0.3 μM)”.
